Source: ChEMBL document CHEMBL1201862, “PubChem BioAssay data set” (2004)
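Method: 48-hour compound exposure of cells in 96-well plates, five concentrations, linear interpolation of endpoints. Here, GI50 denotes the concentration required for 50% inhibition of growth.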 The source made the active and inactive calls. No stated cut-off is given here; in the data, active = GI50 up to about 1.1 µM and inactive = higher.

What was measured:
Experiment in all cases: NCI tumour cell line growth inhibition, 48 h
DMS-114 = system: DMS-114
DMS-273 = system: DMS-273
KM-20L2 = system: KM-20L2
LXFL 529 = system: LXFL 529
M19-MEL = system: M19-MEL
RXF 631 = system: RXF 631
SNB-78 = system: SNB-78
DU-145 = system: DU-145
MDA-N = system: MDA-N

SMILES	GI50 (DMS-114)	GI50 (DMS-273)	GI50 (KM-20L2)	GI50 (LXFL 529)	GI50 (M19-MEL)	GI50 (RXF 631)	GI50 (SNB-78)	GI50 (DU-145)	GI50 (MDA-N)
C[n+]1cn(CC(=O)c2ccccc2)c(C(N)=O)c1N	25 µM (inactive)	> 100 µM (inactive)	> 100 µM (inactive)	61.7 µM (inactive)	25.2 µM (inactive)	> 100 µM (inactive)	> 100 µM (inactive)	–	–
O/N=C1\C(=C\c2ccc3c(c2)OCCO3)CCCC1C(NO)c1ccc2c(c1)OCCO2 (centres undefined)	20.1 µM (inactive)	19.2 µM (inactive)	19 µM (inactive)	20.2 µM (inactive)	24.9 µM (inactive)	32.9 µM (inactive)	33.9 µM (inactive)	–	–
N#CC(C(=O)CCCC(=O)Nc1ccccc1[N+](=O)[O-])c1c(Cl)cccc1Cl (centres undefined)	> 100 µM (inactive)	> 100 µM (inactive)	> 100 µM (inactive)	> 100 µM (inactive)	> 100 µM (inactive)	> 100 µM (inactive)	> 100 µM (inactive)	–	–
CC(CC(=O)Nc1ccc(NC(=O)CC(C)/N=N\C(N)=S)cc1)/N=N\C(N)=S (centres undefined)	53.7 µM (inactive)	36.9 µM (inactive)	> 100 µM (inactive)	> 100 µM (inactive)	> 100 µM (inactive)	> 100 µM (inactive)	> 100 µM (inactive)	–	–
Cc1cc(NS(=O)(=O)c2ccc(Nc3c4ccccc4nc4c(C(=O)Nc5ccc(S(=O)(=O)N=C(N)N)cc5)cccc34)cc2)no1	> 100 µM (inactive)	> 100 µM (inactive)	> 100 µM (inactive)	> 100 µM (inactive)	> 100 µM (inactive)	> 100 µM (inactive)	> 100 µM (inactive)	–	–
COC12OCCN(C)C1=CC(=O)C1N=NCC12 (centres undefined)	> 100 µM (inactive)	> 100 µM (inactive)	–	> 100 µM (inactive)	> 100 µM (inactive)	> 100 µM (inactive)	> 100 µM (inactive)	–	–
Cc1ccccc1C(=O)c1cc(O)ccc1O	45.7 µM (inactive)	42.3 µM (inactive)	32.6 µM (inactive)	> 100 µM (inactive)	> 100 µM (inactive)	> 100 µM (inactive)	> 100 µM (inactive)	–	–
O=C(C#Cc1ccccc1)N1c2ccccc2CC1c1c[nH]c2ccccc12 (centres undefined)	12.7 µM (inactive)	12.7 µM (inactive)	21.9 µM (inactive)	12.3 µM (inactive)	16.1 µM (inactive)	14.3 µM (inactive)	13 µM (inactive)	–	–
COc1ccc2c3c([nH]c(=O)c2c1C(=O)O)-c1ccccc1CC3	> 100 µM (inactive)	> 100 µM (inactive)	> 100 µM (inactive)	> 100 µM (inactive)	–	> 100 µM (inactive)	79.1 µM (inactive)	–	–
OCC1CC2CC1C1(C2)OCCO1 (centres undefined)	> 100 µM (inactive)	> 100 µM (inactive)	> 100 µM (inactive)	> 100 µM (inactive)	> 100 µM (inactive)	> 100 µM (inactive)	> 100 µM (inactive)	–	–
CC(C)c1ccc(/C=C/c2cc(C(=O)NNC(=O)NC3CCCCC3)nc(S)n2)cc1	> 100 µM (inactive)	> 100 µM (inactive)	> 100 µM (inactive)	> 100 µM (inactive)	> 100 µM (inactive)	> 100 µM (inactive)	> 100 µM (inactive)	–	–
O=Cc1[nH]c2ccccc2c1Br	18.5 µM (inactive)	17.8 µM (inactive)	22.2 µM (inactive)	25.5 µM (inactive)	22.1 µM (inactive)	20 µM (inactive)	15.8 µM (inactive)	–	–
OCC(O)C(O)c1nn(-c2ccccc2)c2nc3cc(Cl)c(Cl)cc3nc12 (centres undefined)	21 µM (inactive)	15.7 µM (inactive)	26.7 µM (inactive)	20.6 µM (inactive)	28.8 µM (inactive)	18.9 µM (inactive)	50.2 µM (inactive)	–	–
NC(=O)C(=Cc1ccc(C(O)P(=O)(O)O)cc1)C(N)=O (centres undefined)	> 100 µM (inactive)	> 100 µM (inactive)	> 100 µM (inactive)	> 100 µM (inactive)	> 100 µM (inactive)	> 100 µM (inactive)	> 100 µM (inactive)	–	–
CCC1(CN(C)C)CC/C(=C\c2ccc(OC)cc2)C1=O (centres undefined)	54.1 µM (inactive)	> 100 µM (inactive)	> 100 µM (inactive)	94 µM (inactive)	> 100 µM (inactive)	62.7 µM (inactive)	> 100 µM (inactive)	–	–
C1CSC(=[N+]2CC[N+](=C3SCCS3)CC2)S1	> 100 µM (inactive)	> 100 µM (inactive)	> 100 µM (inactive)	> 100 µM (inactive)	> 100 µM (inactive)	> 100 µM (inactive)	> 100 µM (inactive)	–	–
COc1ccc(CCc2cc(OC)c(OC)c(OC)c2)cc1	0.0248 µM (active)	< 0.01 µM (active)	0.0128 µM (active)	0.0552 µM (active)	< 0.0226 µM (active)	< 0.0166 µM (active)	0.0169 µM (active)	0.0935 µM (active)	< 0.01 µM (active)
